Source: US20240196893A1, “LOW TOXICITY COMPOUNDS FOR USE AS INSECTICIDES AND METHOD OF PRODUCING SAID COMPOUNDS” (UNIVERSIDADE DO PORTO, priority 2021, published 2024)

Tests used:
human keratinocytes = assay: Viability of human keratinocytes (resazurin); type: cell-based; conditions: 50 μg/mL, 24 hours
Procedure: Results represent the mean±SEM of at least three independent experiments, each of them performed in triplicate: **<0.01, ***p<0.001.
The compound (6a) of the present application has no toxicity in human cells, contrarily to the ginkgolic acid (1), or the synthetic commercial insecticide evaluated as benchmark (chlorpyrifos) (FIG. 3), as assessed by cultivating human keratinocytes in the same cell density, exposing them to either compound (6a) or chlorpyrifos at the same concentration (50 μg/mL) and assessing cell viability after 24 hours using resazurin.

[1] = system: insect effector caspase DRICE; assay: Caspase-like activity in insect cells (DEVD-aminoluciferin substrate); type: cell-based; conditions: 50 μg/mL
Procedure: The compound (6a) of the present application presents a mechanism of action distinct of the commercial insecticide chlorpyrifos, which may be of interest as a strategy to overcome pesticide resistances. Specifically, the compound (6a) is capable of activating insect effector caspase DRICE (involved in the process of cell death), while the commercial insecticide is unable to trigger this effect and has no impact in this target (FIG. 4). This was evaluated by incubating cells with the same cellular density with the proluminescent substrate DEVD-aminoluciferin, which becomes […] after cleavage by effector caspases, being detected subsequently in a luminescence detector.

Sf9 cells [2] = conditions: Sf9 insect cells, 100 μg/mL, prior studies; cited from earlier work
Sf9 cells [3] = assay: Viability of Sf9 insect cells (resazurin); type: cell-based, Spodoptera frugiperda
From the text: Results represent the mean+SEM of at least three independent experiments, each of them performed in triplicate: *p<0.05, **p<0.01, ***p<0.001.

Row | SMILES | loss of cell viability (human keratinocytes) | caspase-like activity, increase over basal level [1] | loss of viability (Sf9 cells [2]) | activity in Sf9 insect cells (compared with compound 1) (Sf9 cells [3]; Sf9 insect cells) | loss of cell viability relative to chlorpyrifos (Sf9 cells [3]; Spodoptera frugiperda cells, 100 μg/mL, 24 hours, resazurin)
1 | CCOP(=S)(OCC)Oc1nc(Cl)c(Cl)cc1Cl [chlorpyrifos, O,O-diethyl O-(3,5,6-trichloropyridin-2-yl) phosphorothioate] | ca. 20% | no statistically significant changes |  |  | 
2 | CCCCCCC=CCCCCCCCCCc1cccc(O)c1C(=O)O [compound 1, 2-(heptadec-10-en-1-yl)-6-hydroxybenzoic acid] |  | no increase | ca. 75% |  | 
3 | CCCCCCC=CCCCCCCCCCc1cccc(OC)c1C(=O)O [compound 2, 2-(heptadec-10-en-1-yl)-6-methoxybenzoic acid] |  |  |  | lower activity | 
4 | CCCCCCCCCCCCNc1ccccc1C(=O)O [compound 6a, 2-(dodecylamino) benzoic acid] |  | 400% |  |  | more than the triple
